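These data come from cells grown in 96-well plates and exposed to compound for 48 hours at five concentrations. TGI: concentration producing complete growth inhibition.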
Legend:
Experiment in all cases: NCI anticancer screen, dose series, 48 h
[1] = system: DLD-1 colon
[2] = system: DMS 114 small cell lung
[3] = system: KM20L2 colon
[4] = system: M19-MEL melanoma
[5] = system: MCF7 breast
[6] = system: MOLT-4 leukemia
[7] = system: NCI/ADR-RES ovarian
[8] = system: RXF 393 renal
[9] = system: SK-MEL-2 melanoma
[10] = system: SK-OV-3 ovarian
[11] = system: UACC-257 melanoma
[12] = system: UO-31 renal
[13] = system: 786-0 renal
[14] = system: SR leukemia
[15] = system: BT-549 breast
[16] = system: DU-145 prostate
[17] = system: HS 578T breast
[18] = system: MDA-N
[19] = system: PC-3 prostate
[20] = system: T-47D breast

| SMILES | TGI [1] | TGI [2] | TGI [3] | TGI [4] | TGI [5] | TGI [6] | TGI [7] | TGI [8] | TGI [9] | TGI [10] | TGI [11] | TGI [12] | TGI [13] | TGI [14] | TGI [15] | TGI [16] | TGI [17] | TGI [18] | TGI [19] | TGI [20] |
| --- | --- | --- | --- | --- | --- | --- | --- | --- | --- | --- | --- | --- | --- | --- | --- | --- | --- | --- | --- | --- |
| N=[N+]=CC(=O)CCC(NC(=O)C(CCC(=O)C=[N+]=N)NC(=O)CCC(N)C(=O)O)C(=O)O (configuration not stated) | > 100 µM | > 100 µM | > 100 µM | > 100 µM | > 100 µM | > 100 µM | > 100 µM | > 100 µM | > 100 µM | > 100 µM | > 100 µM | > 100 µM |  |  |  |  |  |  |  |  |
| C1CSC(=[N+]2CC[N+](=C3SCCS3)CC2)S1 | > 100 µM | > 100 µM | > 100 µM | > 100 µM |  | > 100 µM |  | > 100 µM | > 100 µM | > 100 µM | > 100 µM | > 100 µM | > 100 µM | > 100 µM |  |  |  |  |  |  |
| Cc1ccc(N=Nc2ccc(N)cc2C)c(S(N)(=O)=O)c1 |  |  |  |  | > 100 µM | > 100 µM | > 100 µM | > 100 µM | > 100 µM | > 100 µM | > 100 µM | > 100 µM | > 100 µM | > 100 µM | > 100 µM | > 100 µM | > 100 µM | > 100 µM | > 100 µM | > 100 µM |
| CC(C)(C)C(=O)CP(=O)(O)O |  |  |  |  | > 100 µM | > 100 µM | > 100 µM | > 100 µM | > 100 µM | > 100 µM | > 100 µM |  | > 100 µM | > 100 µM | > 100 µM | > 100 µM | > 100 µM | > 100 µM | > 100 µM | > 100 µM |
| C[n+]1c2ccccc2c(NC(CS)C(=O)O)c2ccccc21 (configuration not stated) | > 100 µM | 95.8 µM | > 100 µM | > 100 µM |  | 38.6 µM |  | 60.7 µM | 89.7 µM | 61 µM | 92.9 µM | 66.6 µM | > 100 µM | 39.4 µM |  |  |  |  |  |  |
| C/C(=N\NC(=S)N1CCN(C)CC1)c1nc2ncccc2[nH]1 |  |  |  |  | 80.5 µM | > 100 µM | > 100 µM |  |  | > 100 µM | > 100 µM | > 100 µM | > 100 µM |  | > 100 µM |  | > 100 µM |  | > 100 µM | > 100 µM |
| OC(c1cc(-c2ccc(Cl)cc2)nc2ccccc12)C1CCCCN1 (configuration not stated) |  |  |  |  | 3.03 µM | 4.52 µM | 5.79 µM | 0.315 µM |  | 5.5 µM | 9.71 µM | 2.45 µM | 3.92 µM |  | 16 µM | 3.45 µM | 4.34 µM | 3.7 µM | 3.79 µM | 2.96 µM |

— PubChem BioAssay (NCI)
